Like-named read-outs stand apart in the source and are kept apart here.

The values that follow come from patent US20060216346A1, “Dosage form containing (s)-pantoprazole as active ingredient” (priority 2003, published 2006).

Data set [1] can be described thus: Hygroscopicity / absorption of water. Format: physicochemical. As for the experimental part: (§1) This absorption of water is reversible, so that it is difficult to adjust an exact water content.
Drying is carried out in a vacuum drying cabinet at <50 mbar and 40-45° C. [It is also possible to dispense with drying and to use the moist product (having an MIBK content of 10-20%) directly for step B]. The white-beige crystalline product obtained after drying is hygroscopic. The water content is from 2 to 12%. The absorption and release of water are reversible. Yield: 34 g=90% of theory (based on anhydrous product). Specific rotation: aD^20+=−95 (c=0.5, measured in methanol, sodium salt having a water content of 12%). m.p.: 145-165° C. (decomposition, sodium salt having a water content of 2%); 102-109° C. (decomposition, sodium salt having a water content of 12%).

Data set [2] can be described thus: Stability of the salt at 70° C. for one week. The format is physicochemical. As to conditions: for discolouration and decomposition: identical conditions.
Excerpt: Pantoprazole is the INN (International Nonproprietary Name) for the compound 5-difluoromethoxy-2-[(3,4-dimethoxy-2-pyridinyl)methylsulfinyl]-1H-benzimidazole. The magnesium salt of pantoprazole is the chemical compound magnesium bis[5-[difluoromethoxy]-2-[[3,4-dimethoxy-2-pyridinyl]methyl]sulfinyl]-1H-benzimidazolide]. The magnesium salt of (S)-pantoprazole [hereinafter also referred to as (−)-pantoprazole] and its hydrates in connection with the invention refers to the compound magnesium (−)-bis{[5-(difluoromethoxy)]-2-[(3,4-dimethoxy-2-pyridinyl)methylsulphinyl]-1H-benzimidazolide} including hydrates thereof. Here, particular emphasis is given to hydrates, which, after drying under reduced pressure at 50° C., have a water content of from 4.0 to 6.7% (by weight), in particular from 4.0 to 5.5%. Particular preference is given to the hydrate form which has a water content of from 4.0 to 5.0%, in particular from 4.2 to 4.4%, which corresponds to a dihydrate. The magnesium salt and its hydrates have highly surprising stability properties, making it a particularly suitable candidate for use in solid or oral dosage forms.
as §1

The conditions of data set [3]: in comparison to pantoprazole itself or to pantoprazole sodium sesquihydrate; WO00/10995; cited from earlier work.
A short description of data set [4]: Dissolution rate. The format is physicochemical. As to conditions: compared to the racemic pantoprazole magnesium dihydrate.
Excerpt: as §1

The nature of data set [5]: Solubility at pH 7.4. Format: physicochemical. The conditions noted are these: at pH 7.4, compared to the racemic pantoprazole magnesium dihydrate.
Excerpt: as §1

A short description of data set [6]: Wettability. Format: physicochemical. The conditions noted are these: compared to the racemic pantoprazole magnesium dihydrate.
Excerpt: as §1

As to `COc1ccnc(C[S+]([O-])c2nc3cc(OC(F)F)ccc3[n-]2)c1OC.[Na+]` (single isomer, unassigned; (-)) [(−)-pantoprazole sodium], the hygroscopicity entry in data set [1] was “absorbs water depending on drying conditions and atmospheric humidity”; in data set [1] (listed as (−)-Pantoprazole-Na), “hygroscopic”. Also, the discolouration and decomposition result in data set [2] (at 70° C., one week) is listed as “changes to brown, with formation of considerable amounts of decomposition products”.
As to `COc1ccnc(C[S+]([O-])c2nc3cc(OC(F)F)ccc3[n-]2)c1OC.COc1ccnc(C[S+]([O-])c2nc3cc(OC(F)F)ccc3[n-]2)c1OC.[Mg+2]` (centres unmarked) [magnesium bis[5-[difluoromethoxy]-2-[[3,4-dimethoxy-2-pyridinyl]methyl]sulfinyl]-1H-benzimidazolide]], the stability properties entry in data set [3] is “improved stability properties”.
For the molecule `COc1ccnc(C[S+]([O-])c2nc3cc(OC(F)F)ccc3[n-]2)c1OC.COc1ccnc(C[S+]([O-])c2nc3cc(OC(F)F)ccc3[n-]2)c1OC.O.O.[Mg+2]` (single isomer, unassigned; (-)) [(−)-pantoprazole magnesium dihydrate, Magnesium (−)-bis{[5-(difluoromethoxy)]-2-[(3,4-dimethoxy-2-pyridinyl)methylsulphinyl]-1H-benzimidazolide}dihydrate], the dissolution rate result in data set [4] is “considerably higher”. Further, the hygroscopicity entry in data set [1] is “non-hygroscopic”. Moreover, in data set [5], the solubility entry is recorded as “better”. In data set [6], the wettability result is on record as “better”. For the same molecule, in data set [2] (at 70° C., one week), the stability result is “completely stable”; the discolouration and decomposition entry is on record as “virtually no discolouration or decomposition”. The stability properties result in data set [2] (compared to the sodium salt of (−)-pantoprazole) is given as “considerably improved stability properties”.
